What was measured:
ADORA2A = target: T1, ADORA2A (Homo sapiens, UniProt P29274); assay: NanoBRET screen HiBiT-ADORA2A in HEK293; format: binding
T1 construct: purchased Promega (in-house HiBiT-GPCR construct library, NanoBRET)
Experimental: (§1) Each tracer candidate was screened across the entire library of HiBiT-GPCR constructs using NanoBRET as the detection modality. As depicted in Figure 4A, the specificity of interactions was evaluated through decrease in BRET due to competitive displacement of a bound tracer by excess parental compound. Each tracer was analyzed for binding to each HiBiT-GPCR fusion in the absence and in the presence of competing parental compound. Briefly, HEK293 cells were transfected with HiBiT-GPCR constructs diluted into promoterless DNA to reduce expression and maximize translocation to the cell surface. Each tracer candidate was then screened at concentrations of 1 μM and 0.1 μM across cells expressing these fusions. Cells were treated for 1.5 h with tracer either alone or in the presence of 20 μM competing parental compound (i.e., control). BRET was measured upon addition of purified LgBiT and subsequent complementation with HiBiT genetically fused to a GPCR. The specificity of interactions was assessed through a decrease in BRET signal due to competitive displacement of the bound tracer. To further gauge the robustness of these interactions, the fold response over the control (i.e., BRETtracer/BRETcontrol) was calculated. We chose a 1.5-fold response, which translates to ≥7-fold signal over noise as the minimal threshold required to score an interaction as positive.
(§2) HiBiT-GPCR DNA constructs were diluted in 10 mM Tris pH 8 to a final concentration of 0.01 μg/μL, arrayed in 96-well plates and stored at −20 °C. For transfection, HEK293 cells were suspended in Opti-MEM (without phenol red) supplemented with 2% fetal bovine serum (Seradigm) and 100 units/mL penicillin–streptomycin (Gibco) at a final concentration of 220,000 cells/mL and dispensed into white 96-well plates at 90 μL/well. Subsequent transfections and screens were carried using an Agilent Bravo Automated Liquid Handling Platform. First, the 96-well HiBiT DNA arrays were diluted 25-fold in Opti-MEM (without serum or phenol red) to a final concentration of 0.0004 μg/μL and 20 μL of the diluted DNAs were transferred into new 96-well plates. Next, promoterless carrier DNA (1 μg/μL) was diluted 25-fold (0.04 μg/μL) and then dispensed into the diluted arrays at 20 μL/well. Following brief mixing, Viafect transfection reagent (Promega) diluted 16-fold into Opti-MEM was dispensed into the plates at 40 μL/well. After mixing by pipetting, plates were incubated for 10 min on the pipetting station deck. The DNA-transfection reagent complexes were then added to plates containing cells. To facilitate the screen, 10 μL of DNA-transfection reagent complexes were added in duplicates to the top 4 and bottom 4 rows, resulting in two identical 48-well arrays per plate. Plates with transfected cells were incubated for 18–20 h at 37 °C/5% CO2. A screen of each tracer across the entire library using two different concentrations requires duplicate plates of transfected cells. Depending on the number of tracers being screened, transfections can be scaled up using the same ratios. The next day, for each tracer, four 20× screening solutions in tracer dilution buffer (Promega) were prepared: two duplicates at final concentration of 20 μM and two duplicates at a final concentration of 2 μM. […] The four resulting solutions were diluted 4-fold in Opti-MEM without serum or phenol red to generate 5× solutions (5 µM and 0.5 µM tracer +/− 100 μM competing compound). To screen the library, a BioTek MultiFlo FX liquid dispenser was used to dispense 22.5 µL of tracer solution to the top 4 rows and 22.5 µL tracer + competing compound solution to the 4 bottom rows. Plates were briefly mixed on an orbital shaker and incubated for 1.5 h at room temperature. […] Plates were briefly mixed on an orbital shaker and incubated for 15 min to allow complementation.

TSHR = target: T2, TSHR (Homo sapiens, UniProt P16473); assay: NanoBRET screen HiBiT-TSHR in HEK293; format: binding
T2 construct: purchased Promega (in-house HiBiT-GPCR construct library, NanoBRET)
Experimental: as §1, §2

T2 sequence (P16473 21-764): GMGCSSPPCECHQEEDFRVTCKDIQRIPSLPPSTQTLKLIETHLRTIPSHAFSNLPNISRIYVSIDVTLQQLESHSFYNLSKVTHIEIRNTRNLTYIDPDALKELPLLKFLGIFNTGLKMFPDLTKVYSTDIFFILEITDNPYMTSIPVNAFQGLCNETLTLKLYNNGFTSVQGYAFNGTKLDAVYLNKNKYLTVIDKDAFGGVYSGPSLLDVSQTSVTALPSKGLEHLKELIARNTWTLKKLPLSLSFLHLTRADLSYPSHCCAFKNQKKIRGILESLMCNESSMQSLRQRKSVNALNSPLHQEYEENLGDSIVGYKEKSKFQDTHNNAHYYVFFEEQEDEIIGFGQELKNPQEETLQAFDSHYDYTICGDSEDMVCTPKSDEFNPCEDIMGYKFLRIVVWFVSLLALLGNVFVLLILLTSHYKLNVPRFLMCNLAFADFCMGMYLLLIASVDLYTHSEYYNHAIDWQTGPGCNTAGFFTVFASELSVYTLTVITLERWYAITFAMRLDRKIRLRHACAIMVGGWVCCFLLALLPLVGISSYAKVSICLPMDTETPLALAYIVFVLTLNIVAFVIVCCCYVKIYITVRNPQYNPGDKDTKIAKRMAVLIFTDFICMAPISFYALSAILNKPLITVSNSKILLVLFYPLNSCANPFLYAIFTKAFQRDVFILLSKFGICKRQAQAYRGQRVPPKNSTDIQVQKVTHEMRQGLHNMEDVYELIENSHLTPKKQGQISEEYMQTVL
T1 sequence (P29274 whole entry): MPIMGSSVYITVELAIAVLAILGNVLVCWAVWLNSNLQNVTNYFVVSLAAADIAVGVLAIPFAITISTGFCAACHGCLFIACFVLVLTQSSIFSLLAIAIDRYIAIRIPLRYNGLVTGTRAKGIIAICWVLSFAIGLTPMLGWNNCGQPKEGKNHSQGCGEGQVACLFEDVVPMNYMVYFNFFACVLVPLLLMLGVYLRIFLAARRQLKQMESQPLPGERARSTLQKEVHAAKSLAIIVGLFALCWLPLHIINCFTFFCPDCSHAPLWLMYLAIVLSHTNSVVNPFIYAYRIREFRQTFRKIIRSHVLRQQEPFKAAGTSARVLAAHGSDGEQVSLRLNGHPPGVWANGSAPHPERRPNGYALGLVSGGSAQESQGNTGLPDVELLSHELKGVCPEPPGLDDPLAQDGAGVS

Row | Compound | NanoBRET Fold Response (ADORA2A; ADORA2A, tracer 0.1μM) | NanoBRET Fold Response (ADORA2A; ADORA2A, tracer 1μM) | NanoBRET Fold Response (TSHR; TSHR, tracer 0.1μM) | NanoBRET Fold Response (TSHR; TSHR, tracer 1μM) | also measured
1 | CCOC(=O)c1cc(C#N)c(N2CCC(C(=O)NS(=O)(=O)Cc3ccccc3/C=C/C(=O)NCCNC(=O)CCc3ccc4n3[B-](F)(F)[N+]3=C(c5ccc[nH]5)C=CC3=C4)CC2)nc1C [AZD1283-1-NB590] | – | – | – | – | NanoBRET Fold Response (ADORA2A; ADORA2A, 0.1μM): 1.06; NanoBRET Fold Response (ADORA2A; ADORA2A, 1μM): 1.04; NanoBRET Fold Response (TSHR; TSHR, 0.1μM): 1.00; NanoBRET Fold Response (TSHR; TSHR, 1μM): 0.96
2 | N#CN=C(NCCCOc1cccc(CN2CCCCC2)c1)NCCNC(=O)CCOCCOCCOCCOCCNC(=O)CCc1ccc2n1[B-](F)(F)[N+]1=C(c3ccc[nH]3)C=CC1=C2 [Aminopotentidine-2-NB590] | 1.05 | 0.99 | 1.07 | 1.01 | –
3 | CN(C)CCC=C1c2ccccc2CCc2ccc(C(=O)NCCNC(=O)CCOCCOCCOCCOCCNC(=O)CCc3ccc4n3[B-](F)(F)[N+]3=C(c5ccc[nH]5)C=CC3=C4)cc21 [Amitriptyline-a-2-NB590] | – | – | – | – | NanoBRET Fold Response (ADORA2A; tracer at 0.1μM): 1.02; NanoBRET Fold Response (ADORA2A; tracer at 1μM): 1.07
4 | CN(C)CCC=C1c2ccccc2CCc2ccc(C(=O)NCCNC(=O)CCOCCOCCOCCOCCNC(=O)CCc3ccc4n3[B-](F)(F)[N+]3=C(c5ccc[nH]5)C=CC3=C4)cc21 [Amitriptyline-b-2-NB590] | – | – | – | – | NanoBRET Fold Response (ADORA2A; tracer at 0.1μM, listed as amitriptyline-b-2-NB590): 1.07; NanoBRET Fold Response (ADORA2A; tracer at 1μM, listed as amitriptyline-b-2-NB590): 1.20
5 | CN(CCC=C1c2ccccc2CCc2ccccc21)C(=O)CCOCCOCCOCCOCCNC(=O)CCc1ccc2n1[B-](F)(F)[N+]1=C(c3ccc[nH]3)C=CC1=C2 [Amitriptyline-e-2-NB590] | – | – | – | – | NanoBRET Fold Response (ADORA2A; tracer at 1μM): 1.07
6 | COc1ccc2c(n1)c(CCNC(C)=O)cn2CCNC(=O)CCc1ccc2n1[B-](F)(F)[N+]1=C(c3ccc[nH]3)C=CC1=C2 [Azamelatonin-1-NB590] | – | – | – | – | NanoBRET Fold Response (ADORA2A; 0.1μM tracer): 0.87; NanoBRET Fold Response (ADORA2A; 1μM tracer): 0.92; NanoBRET Fold Response (TSHR; 0.1μM tracer): 1.25; NanoBRET Fold Response (TSHR; 1μM tracer): 0.91
7 | COc1ccc2[nH]c(-c3ccc(CNC(=O)CCOCCOCCOCCOCCNC(=O)CCc4ccc5n4[B-](F)(F)[N+]4=C(c6ccc[nH]6)C=CC4=C5)cc3)c(CCNC(C)=O)c2n1 [AzomelatoninICO9-2-NB590] | – | – | – | – | NanoBRET Fold Response (ADORA2A; 0.1μM tracer): 1.16; NanoBRET Fold Response (ADORA2A; 1μM tracer): 0.82; NanoBRET Fold Response (TSHR; 0.1μM tracer): 1.03; NanoBRET Fold Response (TSHR; 1μM tracer): 0.95
8 | O=C(CCOCCOCCOCCOCCNC(=O)CCc1ccc2n1[B-](F)(F)[N+]1=C(c3ccc[nH]3)C=CC1=C2)NCCCN1CCN(C2=Nc3cc(Cl)ccc3Nc3ccccc32)CC1 [Clozapine-a-2-NB590] | – | – | – | – | NanoBRET Fold Response (ADORA2A; ADORA2A, 0.1μM tracer): 0.95; NanoBRET Fold Response (ADORA2A; ADORA2A, 1μM tracer): 0.89; NanoBRET Fold Response (TSHR; TSHR, 0.1μM tracer): 0.92; NanoBRET Fold Response (TSHR; TSHR, 1μM tracer): 1.05
9 | CN1CCN(C2=Nc3cc(Cl)ccc3Nc3ccc(CNC(=O)CCOCCOCCOCCOCCNC(=O)CCc4ccc5n4[B-](F)(F)[N+]4=C(c6ccc[nH]6)C=CC4=C5)cc32)CC1 [Clozapine-b-2-NB590] | – | – | – | – | NanoBRET Fold Response (ADORA2A; ADORA2A, 0.1μM tracer): 0.97; NanoBRET Fold Response (ADORA2A; ADORA2A, 1μM tracer): 1.00; NanoBRET Fold Response (TSHR; TSHR, 0.1μM tracer): 1.04; NanoBRET Fold Response (TSHR; TSHR, 1μM tracer): 0.99
10 | CN1CCN(C2=Nc3cc(Cl)ccc3N(CC(=O)NCCOCCOCCOCCOCCNC(=O)CCc3ccc4n3[B-](F)(F)[N+]3=C(c5ccc[nH]5)C=CC3=C4)c3ccccc32)CC1 [Clozapine-c-2-NB590] | – | – | – | – | NanoBRET Fold Response (ADORA2A; ADORA2A, 0.1μM tracer): 1.01; NanoBRET Fold Response (ADORA2A; ADORA2A, 1μM tracer): 0.94; NanoBRET Fold Response (TSHR; TSHR, 0.1μM tracer): 0.99; NanoBRET Fold Response (TSHR; TSHR, 1μM tracer): 1.04
11 | O=C(CCOCCOCCOCCOCCNC(=O)CCc1ccc2n1[B-](F)(F)[N+]1=C(c3ccc[nH]3)C=CC1=C2)NCCCN1CCN(C2=Nc3ccccc3Oc3ccc(Cl)cc32)CC1 [Loxapine-a-2-NB590] | 1.08 | 1.11 | 0.97 | 1.07 | –
12 | COc1ccccc1N1CCN(CCCCN2C(=O)c3ccc(CNC(=O)CCOCCOCCOCCOCCNC(=O)CCc4ccc5n4[B-](F)(F)[N+]4=C(c6ccc[nH]6)C=CC4=C5)cc3C2=O)CC1 [NAN-190-2-NB590] | 1.02 | – | 0.96 | 1.06 | –
13 | COc1ccccc1N1CCN(CCCCN2C(=O)c3ccc(CNC(=O)CCOCCNC(=O)c4ccc(CNC(=O)CCc5ccc6n5[B-](F)(F)[N+]5=C(c7ccc[nH]7)C=CC5=C6)cc4)cc3C2=O)CC1 [NAN-190-3-NB590] | 1.00 | 0.91 | 1.01 | 1.04 | –
14 | O=C(CCc1ccc2n1[B-](F)(F)[N+]1=C(c3ccc[nH]3)C=CC1=C2)NCc1ccc(C(=O)NCCOCCC(=O)N[C@@H]2CC[C@@]3(O)[C@H]4Cc5ccc(O)c6c5[C@@]3(CCN4CC3CC3)[C@H]2O6)cc1 [Naltrexone-3-NB590] | 1.08 | 0.58 | 1.36 | 1.06 | –
15 | Cc1cc2c(s1)Nc1ccccc1N=C2N1CCN(CCCNC(=O)CCOCCOCCOCCOCCNC(=O)CCc2ccc3n2[B-](F)(F)[N+]2=C(c4ccc[nH]4)C=CC2=C3)CC1 [Olanzapine-a-2-NB590] | 0.97 | 0.93 | – | – | –
16 | O=C(CCc1ccc2n1[B-](F)(F)[N+]1=C(c3ccc[nH]3)C=CC1=C2)NCc1ccc(C(=O)NCCOCCOCCNCC(O)COc2cccc3ccccc23)cc1 (stereo not drawn) [Propranolol-3-NB590] | – | – | – | – | NanoBRET Fold Response (ADORA2A; ADORA2A, 0.1μM): 1.05; NanoBRET Fold Response (ADORA2A; ADORA2A, 1μM): 0.99
17 | O=C(CCc1ccc2n1[B-](F)(F)[N+]1=C(c3ccc[nH]3)C=CC1=C2)NCCOCCOCCNC(=O)OCCOCCN1CCN(C2=Nc3ccccc3Sc3ccccc32)CC1 [Quetiapine-a-2-NB590] | 0.99 | 0.91 | 0.96 | 0.92 | –
18 | Cc1nc2n(c(=O)c1CCN1CCC(c3noc4cc(F)ccc34)CC1)CCCC2OC(=O)NCCOCCOCCOCCOCCNC(=O)CCc1ccc2n1[B-](F)(F)[N+]1=C(c3ccc[nH]3)C=CC1=C2 (stereo not drawn) [Risperidone-2-NB590] | 0.98 | 0.98 | 1.00 | 0.96 | –
19 | CC(C)N(CC[C@H](c1ccccc1)c1cc(CCNC(=O)CCOCCOCCOCCOCCNC(=O)CCc2ccc3n2[B-](F)(F)[N+]2=C(c4ccc[nH]4)C=CC2=C3)ccc1O)C(C)C [Tolterodine-2-NB590] | 1.35 | 0.95 | 0.69 | 1.20 | –
20 | CC(C)N(CC[C@H](c1ccccc1)c1cc(CCNC(=O)c2ccc(CNC(=O)CCc3ccc4n3[B-](F)(F)[N+]3=C(c5ccc[nH]5)C=CC3=C4)cc2)ccc1O)C(C)C [Tolterodine-BZ-NB590] | 1.00 | 1.01 | 0.96 | 1.08 | –
21 | CCCn1c(=O)c2[nH]c(-c3ccc(OCC(=O)NCCNC(=O)CCOCCNC(=O)c4ccc(CNC(=O)CCc5ccc6n5[B-](F)(F)[N+]5=C(c7ccc[nH]7)C=CC5=C6)cc4)cc3)nc2n(CCC)c1=O [XAC-3-NB590] | 7.87 | 9.18 | 1.08 | 1.03 | –
